The source of these data is patent publication US7195752B2, “Surfactant compounds and uses thereof” (Glaxo Group Limited, priority 2001, dated 2007).

A short description of data set [1]: Particle size by image analysis (Galai CIS-100) of salmeterol xinafoate HFA 134a suspension. The class given is physicochemical. As to conditions: salmeterol xinafoate 25 μg per actuation in HFA 134a, 10% w/w (relative to drug) surfactant; mean of 4 determinations. How it is done:
(§1) Salmeterol xinafoate formulations in HFA 134a, of strength 25 μg per actuation, and 10% w/w (relative to drug) of the relevant surfactant compound of formula (I) were prepared using salmeterol xinafoate (5.8 mg), HFA 134a (12 g) and the relevant compound (0.58 mg). The control was prepared without the addition of a surfactant.
In this measurement, particle size is represented as the equivalent diameter of a circle of equal area to the object. The mean is the average of 4 determinations. The particle size measurement was obtained by transferring the suspensions to a presurised cell, and video-imaging the sample under shear via a microscope objective.
The equivalent diameter is defined as the diameter of a circle of equal area to the object.
The mean equivalent diameter can be weighted by number, length or volume. e.g. For three particles with equivalent diameters of x, y and z: […]

A short description of data set [2]: Content uniformity by dose through use testing of salmeterol xinafoate HFA 134a inhalers. Particulars: 10% w/w surfactant. It is filed as physicochemical. The procedure:
as §1
The content uniformity of the formulation, the preparation of which is described above, was assessed by dose through use testing. Testing was performed on 10 cans/inhalers at “beginning of use” (BoU) and “end of use” (EoU). After each inhaler had been primed (4 shots fired to waste), actuations 1 and 2 (BoU) were collected. The next 116 actuations of each inhaler were then fired to waste using an automated method and actuations 119 and 120 (EoU) collected.
The assesment of content uniformity was performed intially (following sample preparation). The results are quoted in Table 2 as the mean of the two BoU actuations for 10 inhalers (1+2 for 10 inhalers) and the mean of two EoU actuations for the said 10 inhalers (119+120 for the same 10 inhalers) together with the percentage relative standard deviation (% RSD).

Structures are written as SMILES.

For the molecule `O=C(O)COCCCCCCC(F)(F)C(F)(F)F` [Example 5, [(7,7,8,8,8-Pentafluorooctyl)oxy]acetic acid], the “Mean Length weighted diameter” value in data set [1] is listed as 13.8 μm. In data set [2] (EoU minus BoU dose, 10 inhalers, salmeterol xinafoate in HFA 134a), the “rise in dose from beginning to end of use” value worked out at 1.8 µg. Further, the BoU dose in data set [2] (beginning of use, mean of actuations 1+2 for 10 inhalers, salmeterol xinafoate 25 μg per actuation in HFA 134a, initial) turned out to be 19.0 µg. Besides, the EoU dose in data set [2] (end of use, mean of actuations 119+120 for 10 inhalers, salmeterol xinafoate 25 μg per actuation in HFA 134a, initial) was determined as 21.8 µg.
